Experimental data reported in paper PMC8159961, “Exploring protein hotspots by optimized fragment pharmacophores” (Nature Communications, 2021).
Several values for one entry are separate records, joined by “and”; a condition that tells them apart may be missing. Identical values can stand only once. Like-named read-outs stand apart in the source and are kept apart here.

Assays:
bovine factor Xa = target: T1, bovine factor Xa (Bos taurus, UniProt P00743); test: Protease inhibitory assay, chromogenic substrate S-2222; format: biochemical; conditions: cmpd conc 200 µM; for vinit: replicate values; for Ki: FactorXa, one of two values averaged in Supplementary Data 1, read-out: Ki
T1 construct: bovine factor Xa, Chromogenix, 2 nkat/mL; purchased Chromogenix

human thrombin = target: T2, human thrombin (Homo sapiens, UniProt P00734); test: Protease inhibitory assay, chromogenic substrate S-2238; format: biochemical; conditions: for vinit: replicate values; for Ki: Thrombin, one of two values averaged in Supplementary Data 1, read-out: Ki
T2 construct: human thrombin; purchased Sigma-Aldrich

[1] = FactorXa primary screening, substrate 100 µM
[2] = Thrombin Ki determination, substrate 20 µM, cmpd conc 200 µM
[3] = Thrombin Ki determination, substrate 40 µM, cmpd conc 200 µM
[4] = Thrombin primary screening, substrate 40 µM, cmpd conc 500 µM
[5] = substrate 20 µM, cmpd conc 200 µM
[6] = substrate 40 µM, cmpd conc 200 µM
[7] = FactorXa Ki determination, substrate 100 µM
[8] = FactorXa Ki determination, substrate 200 µM

T1 sequence (P00743 234-492 limits assumed): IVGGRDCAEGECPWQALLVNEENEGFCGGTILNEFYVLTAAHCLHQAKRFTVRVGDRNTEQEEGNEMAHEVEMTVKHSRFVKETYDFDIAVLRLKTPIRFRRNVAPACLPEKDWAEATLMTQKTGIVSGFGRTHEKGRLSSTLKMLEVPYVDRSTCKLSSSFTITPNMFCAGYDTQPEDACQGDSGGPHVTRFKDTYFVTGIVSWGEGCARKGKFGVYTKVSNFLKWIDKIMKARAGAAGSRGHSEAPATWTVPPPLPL
T1 sequence (P00743 41-180 partner limits assumed): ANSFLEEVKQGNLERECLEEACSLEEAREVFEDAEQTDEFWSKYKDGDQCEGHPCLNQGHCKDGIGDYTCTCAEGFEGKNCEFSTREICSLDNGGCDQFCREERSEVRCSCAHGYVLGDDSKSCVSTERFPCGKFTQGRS

Compound	V0 / Vi (bovine factor Xa; [1])	vinit (bovine factor Xa; [1])	V0 / Vi (human thrombin; [4])	vinit (human thrombin; [4])	also measured
Nc1nnc(-c2cccs2)[nH]1 [SX-D3]	1.09	16.545 and 15.782	1.08	26.655 and 27.673	V0 / Vi (human thrombin; [2]): 1.11; vinit, avrg. (human thrombin; [2]): 23.831; vinit (human thrombin; [2]): 23.075 and 23.01 and 25.41; V0 / Vi (human thrombin; [3]): 1.08; vinit, avrg. (human thrombin; [3]): 31.345; vinit (human thrombin; [3]): 30.327 and 31.656 and 32.05; Ki (human thrombin; [5]): 204 µM; Ki (human thrombin; [6]): 158 µM
Fc1ccc(CC2CCCNC2)cc1 (centres unmarked) [SX-C1]	0.94	18.218 and 18.909	0.97	29.564 and 30.8	–
c1ccc2sc(N3CCNCC3)nc2c1 [SX-G5]	1.01	16.1 and 17.4	1.04	31.164 and 32.073	–
Cc1ccc(C)n1Cc1ccccc1Cl [SX-D6]	0.98	17.786 and 17.286	1.24	26.364 and 21.673	–
O=C1CSC(Nc2ccc(F)cc2)=N1 [SX-H10]	1.14	14.6 and 13.3	1.13	26.786 and 28.857	–
c1cnc2cccnc2c1 [SX-A2]	1.03	17.164 and 16.836	1.13	26.327 and 25.6	V0 / Vi (human thrombin; [2]): 1.14; vinit, avrg. (human thrombin; [2]): 23.193; vinit (human thrombin; [2]): 23.633 and 22.973 and 22.97; V0 / Vi (human thrombin; [3]): 1.07; vinit, avrg. (human thrombin; [3]): 31.452; vinit (human thrombin; [3]): 33.054 and 31.27 and 30.03; Ki (human thrombin; [5]): 160 µM; Ki (human thrombin; [6]): 166 µM
Fc1ccc2c(C3CCNCC3)c[nH]c2c1 [SX-H4]	0.92	18 and 18.9	0.95	34.909 and 34.764	–
COc1ccccc1N1CCNCC1 [SX-A10]	0.98	14.286 and 15.286	0.96	33.236 and 32.218	–
COc1ccccc1C1CCNCC1 [SX-A11]	0.86	16.916 and 16.512	0.93	35.636 and 31.927	–
Nc1nnc2ccccn12 [SX-A5]	0.96	17.929	0.99	30.873 and 29.418	–
Cc1ccc(-c2ccc(O)cc2)cc1 [SX-D7]	1.15	14.909 and 16.073	1.05	30.8 and 28.545	–
N#CC1CCS(=O)(=O)C1 (centres unmarked) [SX-F2]	0.97	17.745 and 18.291	0.97	30.436 and 30.255	–
Oc1ccccc1N1CCCCC1 [SX-A12]	1.24	11.714 and 11.643	0.93	34.073 and 33.6	V0 / Vi (bovine factor Xa; [7]): 1.21; vinit, avrg. (bovine factor Xa; [7]): 13.477; vinit (bovine factor Xa; [7]): 13.208 and 13.684 and 13.54; V0 / Vi (bovine factor Xa; [8]): 1.14; vinit (bovine factor Xa; [8]): 30.42 and 30.848 and 34.37; Ki (bovine factor Xa; substrate 100 µM): 597 µM; Ki (bovine factor Xa; substrate 200 µM): 625 µM
O=C1NC(=O)C2(CCc3ccccc32)N1 (centres unmarked) [SX-B7]	0.98	19.273 and 17.122	0.98	31.782 and 31.345	–
O=C(O)c1cccc(Nc2ncccn2)c1 [SX-F5]	0.98	17.143 and 18.071	1.09	26.836 and 28	–
CCN(CC)c1cccc(C)c1 [SX-E4]	0.95	17.571 and 18.5	0.95	31.418 and 31.2	–
Cc1cc(C)c2c(=O)[nH]n(C)c2n1 [SX-F12]	1.09	11.4 and 15	0.97	31.745 and 32.764	–
O=C1CCN(c2ccncc2)CC1 [SX-G7]	1.03	17.5 and 15.6	0.90	36.109 and 37.055	–
Cc1cc2ccccc2nc1N [SX-A1]	1.83	9.345 and 9.782	0.95	30.291 and 31.236	V0 / Vi (bovine factor Xa; [7]): 1.84; vinit, avrg. (bovine factor Xa; [7]): 8.852; vinit (bovine factor Xa; [7]): 8.688 and 8.852 and 9.02; V0 / Vi (bovine factor Xa; [8]): 1.59; vinit (bovine factor Xa; [8]): 22.63 and 23.206 and 22.86; Ki (bovine factor Xa; substrate 100 µM): 148 µM; Ki (bovine factor Xa; substrate 200 µM): 152 µM
CC(CN)N1CCc2sccc2C1 (centres unmarked) [SX-F9]	0.97	18.364 and 18.582	1.01	34.291 and 27.273	–
